Test results reported in patent EP0476645B1, “Calcium uptake inhibitors” (MERRELL DOW PHARMACEUTICALS INC., priority 1990, dated 1992).

Test system: Rat PMNL
Experiment: Measurement of intracellular calcium in fMLP-stimulated PMNL preloaded with Fura-2
Type: cell-based
Settings: fMLP stimulus, preincubation with compound 15 minutes at 37°C, concentrations in figure 1
Description: Rat PMNL were obtained from exudates resulting from peritoneal injection of 6 mL of 8% sodium caseinate. Eighteen hours after injection rats were killed by carbon dioxide inhalation and the peritoneal cavity lavaged with Hank's balanced salt solution (HBSS). After concentration of the PMNL by centrifugation, contaminating erythrocytes were removed by hypotonic lysis. The PMNL were then washed twice by centrifugation (400 x g for 10 minutes) and resuspended in HBSS. Cell viability was greater than 90% by Trypan Blue exclusion and greater than 90% of the cells were PMNL by Wright-Giemsa stain.
Intracellular calcium levels were obtained using Fura-2 as fluorescent indicator (Grynkiewicz et al., 1985). Fura-2 was loaded into PMNL as the acetoxymethyl ester (Fura-2/AM) using the method of Korchak et al., (1988). Specifically, 1 X 10⁸ PMNL/mL were incubated in HBSS with 10 µM Fura-2/AM for 10 minutes at 37°C. The cells suspension was then diluted ten fold with HBSS and further incubated for another 20 minutes. The cells were then centrifuged (400 x g for 8 minutes at 25°C) and the PMNL (1 x 10⁷ cells/mL) resuspended in HBSS containing 1% bovine serum albumin. Cells were stored at room temperature and used within 3 hours.
Intracellular calcium level determinations were made using a dual wavelength spectrofluorometer (Photon Technology International, New Brunswick, NJ). Two mL of PMNL suspension (1 x 10⁷ cells/mL) were stirred magnetically at 37°C. Cells were preincubated with the compounds for 15 minutes at 37°C prior to activation. Where compounds were dissolved in DMSO and added directly, the DMSO never exceeded 0.3% in the final cell suspension. Total change in volume with addition of compounds or vehicle and stimuli never exceeded 3%. Intracellular calcium concentrations were calibrated by setting a maximum calcium level in the cells with the addition of 7 µM ionomycin to PMNL in HBSS containing 1% BSA. This was followed by treatment with 20 mM EGTA for 1 hour to obtain a minimum calcium level. […]

Compound: CN(C)c1ccc(C(=O)C#Cc2ccncn2)cc1 [MDL 102,387, 1-(4-dimethylaminophenyl)-3-(4-pyrimidinyl)-2-propyne-1-one]
- suppression of the second wave of intracellular calcium changes: selective concentration-dependent suppression
